For data set [1] the following is noted: neutral aqueous media; Mertes, et al.; cited from earlier work.
For data set [2] the following is noted: cited from earlier work.
Data set [3] relates to herpes simplex. The following applies: cited from earlier work.
Data set [4] concerns many tumor systems. The following applies: Heidelberger, 1965; 1970; cited from earlier work.
Data set [5] is described as follows: Direct cellular cytotoxicity in uninfected control wells. In kind it is cell-based, human. Conditions: foreskin cell monolayers; uninfected human foreskin monolayers; tenfold dilutions; 2 days; read-out: Toxic Concentration. Here is the method: (§1) Each of the nucleosides was initially dissolved in a diluent containing 60% propylene glycol and 10% EtOH; subsequent dilutions used maintenance culture medium. Agents were assessed at tenfold dilutions with final concentrations ranging from 10,000 to 0.01 micromolar. Confluent human foreskin monolayers were maintained in 96-well microtiter plates using Eagle's Minimal Essential Medium supplemented with 2% fetal bovine serum, antibiotics and glutamine using standard methods.^40 Prior to virus inoculation, the medium was removed from each well and replaced with 100 μL of agent diluted in maintenance medium with differing concentrations in each horizontal row, beginning with the highest concentration in the upper row, with subsequent tenfold dilutions in the next rows and the last (control) row fed with agent-free maintenance medium. The virus inocula were then added, suspended in 100 μL of […] medium. A high-dose inoculum which induced nearly confluent (100%) cytopathic effect (CPE) two days later was added to the first five vertical columns of the plate (1-5) and, similarly, a low-dose inoculum inducing approximately 50% CPE in each well two days later was added to the next five vertical columns (6-10). To the last two columns, virus-free medium was added to serve as uninfected control wells in order to assess direct cellular cytotoxicity at each agent dilution. The plates were then incubated at 36.5° C. in 5% CO2 in air for two days, at which time they were read. The cytopathology of each well was read using an inverted microscope and scored from 0 to 4 (0=no CPE and 4=>95% CPE); for marginal or equivocal readings a+ or - is affixed to each score. […] The mean score of each five wells in a row receiving a given agent dilution and virus inoculum was then calculated and compared with an appropriate control row receiving no agent. […] When the value fell between two rows, simple arithmetic interpolation was done to calculate the agent concentrate at the point on a slope between the mean scores in the rows above and below this point. The IC values of each agent using the high and low virus inocula were then averaged yielding a final mean IC which was expressed as a micromolar drug concentration.

In data set [6] the test system is HSV-1. Description: Antiherpes activity, inhibition of cytopathic effect (CPE), HSV-1. In kind it is cell-based. The following applies: Human alphaherpesvirus 1, 48 h, human foreskin monolayers, mean IC of high and low virus inocula, CPE score lowered by 10 scoring units vs control, 2 days, read-out: Inhibitory Concentration (μM) HSV-1. Here is the method:
as §1
In general terms: Damage to the host cells serves as the signal in cytopathic effect assays.

For data set [7], the system named is HSV-2. Description: Antiherpes activity, inhibition of cytopathic effect (CPE), HSV-2. In kind it is cell-based. The following applies: Human alphaherpesvirus 2, 48 h, human foreskin monolayers, mean IC of high and low virus inocula, CPE score lowered by 10 scoring units vs control, 2 days, read-out: Inhibitory Concentration (μM) HSV-2. As for the experimental part:
as §1

For data set [8], the system named is human foreskin monolayers. Description: Direct cellular cytotoxicity in uninfected control wells. In kind it is cell-based. Conditions: statement in words on Table 1. Here is the method:
as §1

In data set [9] the test system is herpes. Kind of data set: Antiherpes activity. Conditions: statement in words on Table 1. In kind it is cell-based. Here is the method: Each of the nucleosides was initially dissolved in a diluent containing 60% propylene glycol and 10% EtOH; subsequent dilutions used maintenance culture medium. Agents were assessed at tenfold dilutions with final concentrations ranging from 10,000 to 0.01 micromolar. […] The plates were then incubated at 36.5° C. in 5% CO2 in air for two days, at which time they were read. The cytopathology of each well was read using an inverted microscope and scored from 0 to 4 (0=no CPE and 4=>95% CPE); for marginal or equivocal readings a+ or - is affixed to each score. […] The mean score of each five wells in a row receiving a given agent dilution and virus inoculum was then calculated and compared with an appropriate control row receiving no agent. […] The IC values of each agent using the high and low virus inocula were then averaged yielding a final mean IC which was expressed as a micromolar drug concentration.

The structures appear in SMILES notation.

With `O=c1[nH]cc(C(F)F)c(=O)[nH]1` [5-Difluoromethyluracil], the lability entry in [1] is “extremely labile in neutral aqueous media”.

Turning to `O=c1[nH]c(=O)n([C@H]2C[C@H](O)[C@@H](CO)O2)cc1C(F)(F)F` [F3 TDR, 1-(2'-deoxy-β-D-erythropentofuranosyl)-5-trifluoromethyluracil], the “cytotoxic (reported)” value in data set [2] is given as “very cytotoxic”. The “activity against herpes simplex” value in data set [3] (Heidelberger, 1965, 1970) is “has shown activity”. The “antiherpetic (reported)” value in [3] (reported) is “antiherpetic”. Besides, the “activity against many tumor systems” value in data set [4] was “has shown activity”.

As to `Cc1cn([C@@H]2O[C@H](CO)[C@@H](O)[C@@H]2F)c(=O)[nH]c1=O` [FMAU, 1-(2-Deoxy-2-fluoro-β-D-arabinofuranosyl)thymine, reference compound], the MCC at 48 h in [5] turned out to be 1 mM. Moreover, the IC (CPE score lowered by 10 units) came to 0.1 µM in data set [6] and 0.05 µM in data set [7].

Regarding `CC(=O)OC[C@H]1O[C@@H](n2cc(CF)c(=O)[nH]c2=O)[C@@H](F)[C@@H]1OC(C)=O` [R=CH2 F, R^1=Ac, X=F, 1-(3,5-Di-0-acetyl-2-deoxy-2-fluoro-β-D-arabinofuranosyl)-5-monofluoromethyluracil], the MCC at 48 h in [5] was determined as 1 mM. For the same compound, the IC (CPE score lowered by 10 units) in [6] is 2.46 µM; in data set [7], 5.19 µM.

`CC(=O)OC[C@H]1O[C@@H](n2cc(CF)c(=O)[nH]c2=O)C[C@@H]1OC(C)=O` [R=CH2 F, R^1=Ac, X=H, 1-(3',5'-di-0-acetyl-β-D-erythropentofuranosyl)-5-monofluoromethyluracil]: the MCC at 48 h in data set [5] was determined as 1 mM. Also, the IC (CPE score lowered by 10 units) in [6] and in data set [7] was more than 100 µM in each case.

Regarding `O=c1[nH]c(=O)n([C@@H]2O[C@H](CO)[C@@H](O)[C@@H]2F)cc1CF` [R=CH2 F, R^1=H, X=F, 1-(2'-Deoxy-2'-fluoro-β-D-arabinofuranosyl)-5-monofluoromethyluracil], the MCC at 48 h in data set [5] came out at 1 mM. The IC (CPE score lowered by 10 units) in data set [6] turned out to be 0.21 µM; in data set [7], 0.18 µM.

In the case of `O=c1[nH]c(=O)n([C@H]2C[C@H](O)[C@@H](CO)O2)cc1CF` [R=CH2 F, R^1=H, X=H, 2'-deoxy-5-monofluoromethyluridine], the MCC at 48 h in [5] came out at 1 mM. The IC (CPE score lowered by 10 units) in data set [6] and in data set [7] was more than 100 µM each time.

Regarding `CC(=O)OC[C@H]1O[C@@H](n2cc(C)c(=O)[nH]c2=O)[C@@H](F)[C@@H]1OC(C)=O` [R=CH3, R^1=Ac, X=F, 1-(3,5-di-0-acetyl-2-deoxy-2-fluoro-β-D-arabinofuranosyl)thymine, reference compound], the MCC at 48 h in [5] was 1 mM. Besides, the IC (CPE score lowered by 10 units) was 0.44 µM in data set [6] and 1.23 µM in data set [7].

On to `CC(=O)OC[C@H]1O[C@@H](n2cc(C(F)F)c(=O)[nH]c2=O)[C@@H](F)[C@@H]1OC(C)=O` [R=CHF2, R^1=Ac, X=F], for which the MCC at 48 h in data set [5] came to 1 mM. Besides, the results for the IC (CPE score lowered by 10 units) in data set [6] and in data set [7] were 0.71 µM and 2.16 µM, respectively.

For the compound `CC(=O)OC[C@H]1O[C@@H](n2cc(C(F)F)c(=O)[nH]c2=O)C[C@@H]1OC(C)=O` [R=CHF2, R^1=Ac, X=H, 1-(3',5'-Di-0-acetyl-2'-deoxy-β-D-erythropentofuranosyl)-5-difluoromethyluracil], the cytotoxicity result in [8] was “without serious cytotoxicity”. Also, the MCC at 48 h in [5] was determined as 1 mM. Moreover, the IC (CPE score lowered by 10 units) in [6] was determined as 17 µM; in data set [7], 25.1 µM. Further, the antiherpes activity result in data set [9] was “very potent antiherpes activity”.

For `O=c1[nH]c(=O)n([C@@H]2O[C@H](CO)[C@@H](O)[C@@H]2F)cc1C(F)F` [R=CHF2, R^1=H, X=F, 1-(2'-Deoxy-2'-fluoro-β-D-arabinofuranosyl)-5-difluoromethyluracil], the MCC at 48 h in [5] was 1 mM. The figures for the IC (CPE score lowered by 10 units) in [6] and in [7] were 0.48 µM and 1.04 µM, respectively.

With `O=c1[nH]c(=O)n([C@H]2C[C@H](O)[C@@H](CO)O2)cc1C(F)F` [R=CHF2, R^1=H, X=H, 2'-Deoxy-5-difluoromethyluridine], the cytotoxicity entry in data set [8] was “without serious cytotoxicity”. In addition, the MCC at 48 h in [5] stood at 1 mM. Moreover, the figures for the IC (CPE score lowered by 10 units) in data set [6] and in data set [7] were 1.4 µM and 1.66 µM, respectively. Moreover, the antiherpes activity result in data set [9] was “very potent antiherpes activity”.

The record behind these values is patent US4762823A, “Nucleosides of 5-monofluoromethyluracil and 5-difluoromethyluracil” (Sloan-Kettering Institute for Cancer Research, priority 1985, dated 1988).
